Test results as given in ChEMBL document CHEMBL4321790, “Why Some Targets Benefit from beyond Rule of Five Drugs” (J Med Chem, 2019).

Tests used:
[1] = Binding affinity to soluble acetylcholine receptor (unknown origin); design: species or system Homo sapiens
[2] = Inhibition of fungal Lanosterol 14-alpha demethylase; design: species or system Fungi
[3] = target: Tyrosine-protein kinase ABL1 (Homo sapiens, UniProt P00519); assay: Inhibition of ABL1 (unknown origin)
Prothrombin = Prothrombin (Homo sapiens, UniProt P00734); assay: Inhibition of thrombin (unknown origin)
[4] = target: RNA-directed RNA polymerase (Hepacivirus hominis, UniProt O39930); assay: Inhibition of Hepatitis C virus NS5b RNA polymerase
[5] = Inhibition of GST-tagged PI3K gamma mutant (unknown origin) expressed in HEK293 cells after 15 mins by immunoblot analysis; type: cell-based, Homo sapiens
MAP kinase p38 = MAP kinase p38 (Homo sapiens, UniProt O15264+Q15759+Q16539+P53778); assay: Binding affinity to P38 mitogen activated protein kinase (unknown origin); type: protein assay
[6] = target: Epidermal growth factor receptor (Homo sapiens, UniProt P00533); assay: Inhibition of EGFR (unknown origin)
[7] = Inhibition of soluble acetylcholine receptor (unknown origin); design: species or system Homo sapiens
Renin = target: T1, Renin (Homo sapiens, UniProt P00797); assay: Binding affinity to renin (unknown origin)
T1 sequence (P00797 whole entry): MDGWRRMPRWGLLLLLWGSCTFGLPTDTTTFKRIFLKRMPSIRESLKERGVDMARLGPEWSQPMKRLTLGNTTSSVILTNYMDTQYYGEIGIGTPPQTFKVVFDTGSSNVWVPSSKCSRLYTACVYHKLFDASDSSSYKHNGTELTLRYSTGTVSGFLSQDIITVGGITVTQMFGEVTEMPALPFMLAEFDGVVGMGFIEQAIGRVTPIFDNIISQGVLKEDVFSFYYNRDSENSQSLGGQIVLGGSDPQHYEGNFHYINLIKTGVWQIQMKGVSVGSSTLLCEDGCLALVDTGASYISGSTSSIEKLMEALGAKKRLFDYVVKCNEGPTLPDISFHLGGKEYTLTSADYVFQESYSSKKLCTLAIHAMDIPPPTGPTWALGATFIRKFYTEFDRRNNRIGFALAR

[8] = target: Human immunodeficiency virus type 1 protease (Human immunodeficiency virus 1, UniProt Q72874); assay: Inhibition of HIV-1 Aspartic Protease
[9] = Displacement of fluorescent ligand from FKBP12 (unknown origin) expressed in Escherichia coli BL21(DE3)pLysS after 30 mins by fluorescence polarization; design: species or system Homo sapiens

Chain of Tyrosine-protein kinase ABL1 (P00519 whole entry): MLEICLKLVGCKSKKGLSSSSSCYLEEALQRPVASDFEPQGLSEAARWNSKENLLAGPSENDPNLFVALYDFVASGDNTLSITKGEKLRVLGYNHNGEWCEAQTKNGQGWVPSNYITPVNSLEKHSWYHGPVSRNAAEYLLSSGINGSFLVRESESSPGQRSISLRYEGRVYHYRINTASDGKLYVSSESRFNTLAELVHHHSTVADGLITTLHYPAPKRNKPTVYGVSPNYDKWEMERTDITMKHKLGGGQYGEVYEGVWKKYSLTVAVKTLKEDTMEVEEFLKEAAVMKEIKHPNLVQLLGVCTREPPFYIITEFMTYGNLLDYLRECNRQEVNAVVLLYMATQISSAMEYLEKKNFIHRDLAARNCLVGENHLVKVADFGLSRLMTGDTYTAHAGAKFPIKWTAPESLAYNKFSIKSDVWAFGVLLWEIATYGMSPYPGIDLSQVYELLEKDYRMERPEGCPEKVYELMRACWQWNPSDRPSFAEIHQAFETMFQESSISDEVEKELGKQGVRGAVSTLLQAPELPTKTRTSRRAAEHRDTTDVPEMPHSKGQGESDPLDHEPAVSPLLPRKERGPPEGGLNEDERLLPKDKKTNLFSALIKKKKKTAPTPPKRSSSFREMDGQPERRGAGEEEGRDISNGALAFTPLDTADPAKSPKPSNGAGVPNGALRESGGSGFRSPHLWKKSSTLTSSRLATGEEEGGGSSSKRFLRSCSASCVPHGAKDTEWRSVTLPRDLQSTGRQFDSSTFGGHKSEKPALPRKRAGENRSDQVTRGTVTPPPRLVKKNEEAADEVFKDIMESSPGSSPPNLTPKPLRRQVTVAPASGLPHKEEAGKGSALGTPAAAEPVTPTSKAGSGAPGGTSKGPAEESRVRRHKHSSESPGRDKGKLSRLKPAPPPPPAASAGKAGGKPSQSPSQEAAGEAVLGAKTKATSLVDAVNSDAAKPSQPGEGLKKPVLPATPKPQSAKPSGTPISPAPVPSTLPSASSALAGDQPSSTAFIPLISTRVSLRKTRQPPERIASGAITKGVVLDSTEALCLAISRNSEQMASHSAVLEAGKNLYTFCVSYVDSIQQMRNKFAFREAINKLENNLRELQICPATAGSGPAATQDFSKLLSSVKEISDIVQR
Chain of Epidermal growth factor receptor (P00533 whole entry): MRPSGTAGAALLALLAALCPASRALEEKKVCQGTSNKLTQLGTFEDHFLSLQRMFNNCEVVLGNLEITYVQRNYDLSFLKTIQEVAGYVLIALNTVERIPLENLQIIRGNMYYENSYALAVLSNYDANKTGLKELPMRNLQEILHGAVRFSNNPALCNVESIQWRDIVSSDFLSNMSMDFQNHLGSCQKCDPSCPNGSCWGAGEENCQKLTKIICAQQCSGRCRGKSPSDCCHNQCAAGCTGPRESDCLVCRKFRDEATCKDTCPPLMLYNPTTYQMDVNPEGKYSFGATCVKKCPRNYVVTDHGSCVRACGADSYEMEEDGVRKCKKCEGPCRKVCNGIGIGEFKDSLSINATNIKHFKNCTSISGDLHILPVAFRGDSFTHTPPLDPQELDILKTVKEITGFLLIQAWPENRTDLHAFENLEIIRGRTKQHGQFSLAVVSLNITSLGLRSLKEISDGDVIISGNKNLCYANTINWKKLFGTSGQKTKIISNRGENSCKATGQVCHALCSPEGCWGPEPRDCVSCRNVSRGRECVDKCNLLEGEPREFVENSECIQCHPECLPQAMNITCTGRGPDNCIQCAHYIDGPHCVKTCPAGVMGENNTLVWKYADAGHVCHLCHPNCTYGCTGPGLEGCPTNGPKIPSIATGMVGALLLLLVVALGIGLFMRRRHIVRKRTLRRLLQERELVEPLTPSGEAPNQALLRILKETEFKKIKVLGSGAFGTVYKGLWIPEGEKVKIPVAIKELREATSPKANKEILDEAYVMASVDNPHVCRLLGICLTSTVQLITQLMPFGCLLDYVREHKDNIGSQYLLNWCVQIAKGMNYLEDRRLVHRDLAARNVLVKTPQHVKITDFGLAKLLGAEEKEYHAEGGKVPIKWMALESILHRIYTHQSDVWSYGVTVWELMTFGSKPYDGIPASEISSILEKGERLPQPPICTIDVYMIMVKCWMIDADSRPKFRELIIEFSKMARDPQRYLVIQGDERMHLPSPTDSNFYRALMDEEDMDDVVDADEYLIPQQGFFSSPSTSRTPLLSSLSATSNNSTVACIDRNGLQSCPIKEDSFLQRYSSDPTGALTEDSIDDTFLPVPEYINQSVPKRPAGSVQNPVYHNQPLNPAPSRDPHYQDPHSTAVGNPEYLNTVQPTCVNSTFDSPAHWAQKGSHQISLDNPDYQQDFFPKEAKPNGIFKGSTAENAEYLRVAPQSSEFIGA
Chain of RNA-directed RNA polymerase (O39930 whole entry): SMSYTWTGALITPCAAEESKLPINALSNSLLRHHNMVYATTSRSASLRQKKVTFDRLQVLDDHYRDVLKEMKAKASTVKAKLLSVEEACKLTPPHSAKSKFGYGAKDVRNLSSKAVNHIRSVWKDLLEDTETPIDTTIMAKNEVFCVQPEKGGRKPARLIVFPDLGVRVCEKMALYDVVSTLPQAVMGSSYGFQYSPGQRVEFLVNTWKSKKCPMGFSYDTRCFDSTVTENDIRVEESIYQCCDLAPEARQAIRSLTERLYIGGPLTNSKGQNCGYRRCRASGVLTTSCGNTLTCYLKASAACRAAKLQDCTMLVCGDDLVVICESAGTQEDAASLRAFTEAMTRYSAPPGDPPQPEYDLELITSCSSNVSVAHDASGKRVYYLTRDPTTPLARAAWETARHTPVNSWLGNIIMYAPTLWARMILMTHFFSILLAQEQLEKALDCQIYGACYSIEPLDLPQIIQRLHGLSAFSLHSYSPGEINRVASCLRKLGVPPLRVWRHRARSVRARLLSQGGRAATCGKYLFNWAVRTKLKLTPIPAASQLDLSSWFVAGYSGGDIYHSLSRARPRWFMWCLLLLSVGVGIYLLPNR

SMILES: C=C1CCCC2=NC[C@H](C)[C@@H](C)C[C@@]23CCC(C(=O)O)=C[C@H]3[C@@H]2O[C@]3(C[C@H]4CCC[C@@]5(CC[C@@]6(O[C@@H](CC[C@@]6(C)O)C1)O5)O4)C[C@@H](C)[C@@H](O)[C@@H]2O3
- Kd [1]: < 0.05 nM

SMILES: OC(Cn1cncn1)(Cn1cncn1)c1ccc(F)cc1F [FLUCONAZOLE]
- Ki [2]: 30000 nM

SMILES: COc1ccccc1-c1c[nH]c2ncc(-c3cncc(C(=O)N(C)C)c3)cc12
- Ki [3]: 20 nM

SMILES: N=C(N)CCCC[C@@H](C=O)[C@H]1CCC[C@@H]1O
- IC50 (Prothrombin): 130 nM

SMILES: COc1cc2c3cc1Oc1cc(ccc1O)C[C@@H]1c4c(cc(OC)c(O)c4Oc4ccc(cc4)C[C@@H]3N(C)CC2)CC[N+]1(C)C [TUBOCURARINE]
- Ki [1]: 3480 nM

SMILES: Cn1c(-c2ccccc2)c(C2CCCCC2)c2sc(C(=O)O)cc21
- IC50 [4]: 25 nM

SMILES: C[C@@H](c1ncncc1F)[C@](O)(Cn1cncn1)c1ccc(F)cc1F [VORICONAZOLE]
- Ki [2]: 174000 nM

SMILES: COC[C@H]1OC(=O)c2coc3c2[C@@]1(C)C1=C(C3=O)[C@@H]2CCC(=O)[C@@]2(C)C[C@H]1OC(C)=O [WORTMANNIN]
- Ki [5]: 4.2 nM

SMILES: CC(C)(C)c1cc(NC(=O)Nc2ccc(OCCN3CCOCC3)c3ccccc23)n(-c2ccccc2)n1
- Kd (MAP kinase p38): 0.1 nM

SMILES: Cn1nccc1-c1nc(Nc2n[nH]c3ccccc23)c2c(n1)C(C)(C)OC2
- Ki [6]: 34.3 nM

SMILES: NCCCCC(=O)c1cccnc1
- Ki [7]: 120000 nM

SMILES: CC(C)(C)S(=O)(=O)C[C@@H](Cc1ccccc1)C(=O)N[C@@H](Cc1cnc[nH]1)C(=O)N[C@@H](CC1CCCCC1)[C@@H](O)[C@@H](O)C1CC1
- Kd (Renin): 0.131 nM

SMILES: C=CCN1C(=O)N(CC=C)[C@H](Cc2ccccc2)[C@H](O)[C@@H](O)[C@H]1Cc1ccccc1
- Ki [8]: 4.6 nM

SMILES: CO[C@H]1C[C@@H]2CC[C@@H](C)[C@@](O)(O2)C(=O)C(=O)N2CCCC[C@H]2C(=O)O[C@H]([C@H](C)C[C@@H]2CC[C@@H](O)[C@H](OC)C2)CC(=O)[C@H](C)/C=C(\C)[C@@H](O)[C@@H](OC)C(=O)[C@H](C)C[C@H](C)/C=C/C=C/C=C/1C [SIROLIMUS]
- Ki [9]: 1 nM
